Reference: ChEMBL document CHEMBL4004803, “Syntheses and antibacterial activity of soluble 9-bromo substituted indolizinoquinoline-5,12-dione derivatives” (Eur J Med Chem, 2017)
Converted amounts (≈) assume the structure as drawn.

Legend:
Type in all cases: functional
Staphylococcus aureus [1] = test: Antibacterial activity against methicillin-resistant Staphylococcus aureus 110910-2 clinical isolate after 20 to 24 hrs by two-fold microdilution method
Staphylococcus aureus [2] = test: Antibacterial activity against methicillin-resistant Staphylococcus aureus 921026 clinical isolate after 20 to 24 hrs by two-fold microdilution method
Staphylococcus aureus [3] = test: Antibacterial activity against methicillin-resistant Staphylococcus aureus 20534 clinical isolate after 20 to 24 hrs by two-fold microdilution method
Staphylococcus aureus [4] = test: Antibacterial activity against methicillin-resistant Staphylococcus aureus 103054 clinical isolate after 20 to 24 hrs by two-fold microdilution method
Staphylococcus aureus [5] = test: Antibacterial activity against methicillin-resistant Staphylococcus aureus 19950 clinical isolate after 20 to 24 hrs by two-fold microdilution method
Staphylococcus aureus [6] = test: Antibacterial activity against methicillin-resistant Staphylococcus aureus 1101016 clinical isolate after 20 to 24 hrs by two-fold microdilution method
Staphylococcus aureus [7] = test: Antibacterial activity against methicillin-resistant Staphylococcus aureus 305026 clinical isolate after 20 to 24 hrs by two-fold microdilution method
Staphylococcus aureus [8] = test: Antibacterial activity against methicillin-resistant Staphylococcus aureus 110834 clinical isolate after 20 to 24 hrs by two-fold microdilution method
Staphylococcus aureus [9] = test: Antibacterial activity against methicillin-resistant Staphylococcus aureus 216054 clinical isolate after 20 to 24 hrs by two-fold microdilution method
Streptococcus pneumoniae = test: Antibacterial activity against Streptococcus pneumoniae ATCC 6305 after 20 to 24 hrs by two-fold microdilution method
Staphylococcus aureus [10] = test: Antibacterial activity against methicillin-resistant Staphylococcus aureus 215073 clinical isolate after 20 to 24 hrs by two-fold microdilution method
Staphylococcus aureus [11] = test: Antibacterial activity against methicillin-resistant Staphylococcus aureus 1128040 clinical isolate after 20 to 24 hrs by two-fold microdilution method
Staphylococcus aureus [12] = test: Antibacterial activity against methicillin-resistant Staphylococcus aureus 531220 clinical isolate after 20 to 24 hrs by two-fold microdilution method
Staphylococcus aureus [13] = test: Antibacterial activity against methicillin-resistant Staphylococcus aureus 118038 clinical isolate after 20 to 24 hrs by two-fold microdilution method
Staphylococcus aureus [14] = test: Antibacterial activity against methicillin-resistant Staphylococcus aureus 110325 clinical isolate after 20 to 24 hrs by two-fold microdilution method
Staphylococcus aureus [15] = test: Antibacterial activity against methicillin-resistant Staphylococcus aureus 1029025 clinical isolate after 20 to 24 hrs by two-fold microdilution method
Staphylococcus aureus [16] = test: Antibacterial activity against methicillin-resistant Staphylococcus aureus 11819 clinical isolate after 20 to 24 hrs by two-fold microdilution method
Staphylococcus aureus [17] = test: Antibacterial activity against methicillin-resistant Staphylococcus aureus 822030 clinical isolate after 20 to 24 hrs by two-fold microdilution method
Staphylococcus aureus [18] = test: Antibacterial activity against methicillin-resistant Staphylococcus aureus 414244 clinical isolate after 20 to 24 hrs by two-fold microdilution method
Staphylococcus aureus [19] = test: Antibacterial activity against methicillin-resistant Staphylococcus aureus 219236 clinical isolate after 20 to 24 hrs by two-fold microdilution method
Staphylococcus aureus [20] = test: Antibacterial activity against methicillin-resistant Staphylococcus aureus 202045 clinical isolate after 20 to 24 hrs by two-fold microdilution method
Staphylococcus aureus [21] = test: Antibacterial activity against methicillin-resistant Staphylococcus aureus ATCC 43300 after 20 to 24 hrs by two-fold microdilution method
Staphylococcus aureus [22] = test: Antibacterial activity against methicillin-resistant Staphylococcus aureus 1211026 clinical isolate after 20 to 24 hrs by two-fold microdilution method
Staphylococcus aureus [23] = test: Antibacterial activity against methicillin-resistant Staphylococcus aureus 30116-1 clinical isolate after 20 to 24 hrs by two-fold microdilution method
Staphylococcus aureus [24] = test: Antibacterial activity against methicillin-resistant Staphylococcus aureus 829034 clinical isolate after 20 to 24 hrs by two-fold microdilution method
Staphylococcus aureus [25] = test: Antibacterial activity against methicillin-resistant Staphylococcus aureus 20339 clinical isolate after 20 to 24 hrs by two-fold microdilution method
Staphylococcus aureus [26] = test: Antibacterial activity against methicillin-resistant Staphylococcus aureus 625032 clinical isolate after 20 to 24 hrs by two-fold microdilution method
Staphylococcus aureus [27] = test: Antibacterial activity against methicillin-resistant Staphylococcus aureus 102849 clinical isolate after 20 to 24 hrs by two-fold microdilution method
Staphylococcus aureus [28] = test: Antibacterial activity against methicillin-resistant Staphylococcus aureus 1019240 clinical isolate after 20 to 24 hrs by two-fold microdilution method
Staphylococcus aureus [29] = test: Antibacterial activity against methicillin-resistant Staphylococcus aureus 1215028 clinical isolate after 20 to 24 hrs by two-fold microdilution method
Staphylococcus aureus [30] = test: Antibacterial activity against methicillin-resistant Staphylococcus aureus 109016 clinical isolate after 20 to 24 hrs by two-fold microdilution method
Staphylococcus aureus [31] = test: Antibacterial activity against methicillin-resistant Staphylococcus aureus 110432 clinical isolate after 20 to 24 hrs by two-fold microdilution method
Staphylococcus aureus [32] = test: Antibacterial activity against methicillin-resistant Staphylococcus aureus 110328-1 clinical isolate after 20 to 24 hrs by two-fold microdilution method
Streptococcus pyogenes = test: Antibacterial activity against Streptococcus pyogenes ATCC 19615 after 20 to 24 hrs by two-fold microdilution method
Staphylococcus aureus [33] = test: Antibacterial activity against methicillin-resistant Staphylococcus aureus 131215 clinical isolate after 20 to 24 hrs by two-fold microdilution method
Staphylococcus aureus [34] = test: Antibacterial activity against methicillin-resistant Staphylococcus aureus 1012039 clinical isolate after 20 to 24 hrs by two-fold microdilution method
Staphylococcus aureus [35] = test: Antibacterial activity against methicillin-resistant Staphylococcus aureus 121026 clinical isolate after 20 to 24 hrs by two-fold microdilution method
Staphylococcus aureus [36] = test: Antibacterial activity against methicillin-resistant Staphylococcus aureus 304243 clinical isolate after 20 to 24 hrs by two-fold microdilution method
Staphylococcus aureus [37] = test: Antibacterial activity against methicillin-resistant Staphylococcus aureus 1212221 clinical isolate after 20 to 24 hrs by two-fold microdilution method
Staphylococcus aureus [38] = test: Antibacterial activity against methicillin-resistant Staphylococcus aureus 20106-2 clinical isolate after 20 to 24 hrs by two-fold microdilution method
Staphylococcus aureus [39] = test: Antibacterial activity against methicillin-resistant Staphylococcus aureus 919205 clinical isolate after 20 to 24 hrs by two-fold microdilution method
Staphylococcus aureus [40] = test: Antibacterial activity against methicillin-resistant Staphylococcus aureus 519238 clinical isolate after 20 to 24 hrs by two-fold microdilution method
Staphylococcus aureus [41] = test: Antibacterial activity against methicillin-resistant Staphylococcus aureus 1111047-1 clinical isolate after 20 to 24 hrs by two-fold microdilution method
Staphylococcus aureus [42] = test: Antibacterial activity against methicillin-resistant Staphylococcus aureus 1216052 clinical isolate after 20 to 24 hrs by two-fold microdilution method
Staphylococcus aureus [43] = test: Antibacterial activity against methicillin-resistant Staphylococcus aureus 11703 clinical isolate after 20 to 24 hrs by two-fold microdilution method
Staphylococcus aureus [44] = test: Antibacterial activity against methicillin-resistant Staphylococcus aureus 1113041 clinical isolate after 20 to 24 hrs by two-fold microdilution method
Staphylococcus aureus [45] = test: Antibacterial activity against methicillin-resistant Staphylococcus aureus 121969 clinical isolate after 20 to 24 hrs by two-fold microdilution method

## CN(C)CCCCCOC(=O)c1c2c(n3cc(Br)ccc13)C(=O)c1ncccc1C2=O
Staphylococcus aureus [1]
  MIC: 0.5 µg/mL (≈ 1.03 µM)
Staphylococcus aureus [2]
  MIC: 0.25 µg/mL (≈ 0.516 µM)
Staphylococcus aureus [3]
  MIC: 0.5 µg/mL (≈ 1.03 µM)
Staphylococcus aureus [4]
  MIC: 0.5 µg/mL (≈ 1.03 µM)
Staphylococcus aureus [5]
  MIC: 0.5 µg/mL (≈ 1.03 µM)
Staphylococcus aureus [6]
  MIC: 0.25 µg/mL (≈ 0.516 µM)
Staphylococcus aureus [7]
  MIC: 0.125 µg/mL (≈ 0.258 µM)
Staphylococcus aureus [8]
  MIC: 0.5 µg/mL (≈ 1.03 µM)
Staphylococcus aureus [9]
  MIC: 0.25 µg/mL (≈ 0.516 µM)
Streptococcus pneumoniae
  MIC: 0.5 µg/mL (≈ 1.03 µM)
Staphylococcus aureus [10]
  MIC: 0.5 µg/mL (≈ 1.03 µM)
Staphylococcus aureus [11]
  MIC: 0.25 µg/mL (≈ 0.516 µM)
Staphylococcus aureus [12]
  MIC: 0.25 µg/mL (≈ 0.516 µM)
Staphylococcus aureus [13]
  MIC: 0.25 µg/mL (≈ 0.516 µM)
Staphylococcus aureus [14]
  MIC: 0.125 µg/mL (≈ 0.258 µM)
Staphylococcus aureus [15]
  MIC: 0.25 µg/mL (≈ 0.516 µM)
Staphylococcus aureus [16]
  MIC: 0.125 µg/mL (≈ 0.258 µM)
Staphylococcus aureus [17]
  MIC: 0.5 µg/mL (≈ 1.03 µM)
Staphylococcus aureus [18]
  MIC: 0.5 µg/mL (≈ 1.03 µM)
Staphylococcus aureus [19]
  MIC: 0.125 µg/mL (≈ 0.258 µM)
Staphylococcus aureus [20]
  MIC: 0.5 µg/mL (≈ 1.03 µM)
Staphylococcus aureus [21]
  MIC: ≤ 0.0078 µg/mL
Staphylococcus aureus [22]
  MIC: 0.25 µg/mL (≈ 0.516 µM)
Staphylococcus aureus [23]
  MIC: 0.5 µg/mL (≈ 1.03 µM)
Staphylococcus aureus [24]
  MIC: 0.5 µg/mL (≈ 1.03 µM)
Staphylococcus aureus [25]
  MIC: 0.5 µg/mL (≈ 1.03 µM)
Staphylococcus aureus [26]
  MIC: 0.125 µg/mL (≈ 0.258 µM)
Staphylococcus aureus [27]
  MIC: 0.25 µg/mL (≈ 0.516 µM)
Staphylococcus aureus [28]
  MIC: 0.5 µg/mL (≈ 1.03 µM)
Staphylococcus aureus [29]
  MIC: 0.125 µg/mL (≈ 0.258 µM)
Staphylococcus aureus [30]
  MIC: 0.25 µg/mL (≈ 0.516 µM)
Staphylococcus aureus [31]
  MIC: 0.5 µg/mL (≈ 1.03 µM)
Staphylococcus aureus [32]
  MIC: 0.063 µg/mL (≈ 0.13 µM)
Streptococcus pyogenes
  MIC: 2 µg/mL (≈ 4.13 µM)
Staphylococcus aureus [33]
  MIC: 0.25 µg/mL (≈ 0.516 µM)
Staphylococcus aureus [34]
  MIC: 0.125 µg/mL (≈ 0.258 µM)
Staphylococcus aureus [35]
  MIC: 0.125 µg/mL (≈ 0.258 µM)
Staphylococcus aureus [36]
  MIC: 0.25 µg/mL (≈ 0.516 µM)
Staphylococcus aureus [37]
  MIC: 0.125 µg/mL (≈ 0.258 µM)
Staphylococcus aureus [38]
  MIC: 1 µg/mL (≈ 2.06 µM)
Staphylococcus aureus [39]
  MIC: 0.125 µg/mL (≈ 0.258 µM)
Staphylococcus aureus [40]
  MIC: 1 µg/mL (≈ 2.06 µM)
Staphylococcus aureus [41]
  MIC: 0.5 µg/mL (≈ 1.03 µM)
Staphylococcus aureus [42]
  MIC: 4 µg/mL (≈ 8.26 µM)
Staphylococcus aureus [43]
  MIC: 0.5 µg/mL (≈ 1.03 µM)
Staphylococcus aureus [44]
  MIC: 0.5 µg/mL (≈ 1.03 µM)
Staphylococcus aureus [45]
  MIC: 0.25 µg/mL (≈ 0.516 µM)
